Test results from patent US10028966B2 (Avalyn Pharma Inc., priority 2014, dated 2018).
Read-outs that look alike come from different tables or passages of the source. Marks after values point to notes of the source that are not given here.

What was measured:
[1] = Osmolality determination and nebulization for taste testing, throat irritation and cough response; settings: for Cough Response? / Throat Irritation?: nebulized
Source text: Selected formulations were subjected to osmolality determination and nebulization for taste testing and throat irritation and or cough response.

[2] = cited from earlier work; for AUC over 0-18 hours / Cmax: human, plasma (Rubino et al., 2009)
CYP2C9 = target: T1, CYP2C9 (Homo sapiens, UniProt P11712); settings: hepatic microsomes; cited from earlier work
T1 construct: In vitro metabolism studies with hepatic microsomes; from tissue; host or cells: hepatic microsomes
T1 sequence (P11712 whole entry): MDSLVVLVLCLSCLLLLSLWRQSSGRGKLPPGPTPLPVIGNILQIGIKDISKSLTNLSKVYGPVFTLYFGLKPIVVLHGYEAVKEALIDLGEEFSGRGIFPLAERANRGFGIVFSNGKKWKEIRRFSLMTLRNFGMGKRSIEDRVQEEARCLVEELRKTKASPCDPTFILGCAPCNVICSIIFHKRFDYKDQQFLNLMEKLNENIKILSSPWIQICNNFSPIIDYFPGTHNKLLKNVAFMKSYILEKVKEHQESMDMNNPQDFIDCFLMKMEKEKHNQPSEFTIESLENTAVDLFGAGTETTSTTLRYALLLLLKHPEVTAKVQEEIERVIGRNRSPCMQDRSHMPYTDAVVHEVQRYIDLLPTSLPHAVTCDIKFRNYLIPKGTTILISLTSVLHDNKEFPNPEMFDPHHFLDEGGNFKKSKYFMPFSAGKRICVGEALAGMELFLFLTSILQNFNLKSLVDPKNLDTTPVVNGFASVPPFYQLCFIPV

[3] = 85% saturation pirfenidone formulations exposed to several temperatures (re-crystallization); type: physicochemical
Source text: However, in all cases pirfenidone eventually re-crystallized. This re-crystallization was not inhibited by pre-filtration of the sample.

2C19 = target: T2, 2C19 (Homo sapiens, UniProt P33261); settings: hepatic microsomes; cited from earlier work
T2 construct: In vitro metabolism studies with hepatic microsomes; from tissue; host or cells: hepatic microsomes
T2 sequence (P33261 whole entry): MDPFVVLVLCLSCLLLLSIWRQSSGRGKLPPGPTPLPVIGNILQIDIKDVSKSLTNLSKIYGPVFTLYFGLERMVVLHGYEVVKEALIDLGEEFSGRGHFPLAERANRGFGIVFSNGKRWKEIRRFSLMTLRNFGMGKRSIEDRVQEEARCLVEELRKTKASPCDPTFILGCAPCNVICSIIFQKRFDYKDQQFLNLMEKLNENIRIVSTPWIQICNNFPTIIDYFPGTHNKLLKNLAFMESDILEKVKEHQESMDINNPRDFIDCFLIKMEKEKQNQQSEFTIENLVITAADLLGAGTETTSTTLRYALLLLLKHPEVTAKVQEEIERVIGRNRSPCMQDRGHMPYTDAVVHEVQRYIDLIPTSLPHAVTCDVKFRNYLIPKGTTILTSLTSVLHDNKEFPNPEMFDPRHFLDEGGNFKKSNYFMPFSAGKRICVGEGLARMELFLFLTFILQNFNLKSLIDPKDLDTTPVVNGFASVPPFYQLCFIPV

[4] = cited from earlier work; for AUC (0-18 hrs) / Cmax: human
[5] = Pharmacokinetics and tissue distribution (lung, plasma, heart, kidney) of co-solvent formulations, intratracheal bolus aerosol; type: in vivo, Sprague-Dawley rats; settings: for concentration at 0.167 hr / concentration at 0.333 hr / concentration at 0.667 hr / concentration at 0 h / concentration at 4 min / concentration at 2.5 h / concentration at 0.167 h / concentration at 0.333 h / concentration at 0.667 h / concentration at 1 h: Sprague-Dawley, rat, 4 mg/kg, Pirfenidone, Mean, about 4 mg/kg IT aerosol; for concentration at 0.167 hr / concentration at 0.333 hr / concentration at 0.667 hr: other: intratracheal bolus aerosol (nebulizing catheter); for concentration at 0 h / concentration at 4 min / concentration at 2.5 h / concentration at 0.167 h / concentration at 0.333 h / concentration at 0.667 h / concentration at 1 h: other: intratracheal bolus aerosol; for concentration at 4 min: 0.0667 hr
Description: Selected formulations were prepared for pharmacokinetic analysis following aerosol delivery to rat lung. […] Formulations prepared for this study are outlined in Table 9. […] The sample was agitated until completely dissolved. […] Filtered samples were analyzed by HPLC.

[6] = Aqueous solubility, tonicity salt, dissolution and taste observations on pirfenidone formulations; type: physicochemical
Description: However, at this (and lower) concentration it was determined that salt addition was required to improve acute tolerability upon inhalation of a nebulized solution (otherwise a hypotonic solution). To address tonicity, NaCl or MgCl2 were added. […] This effect was not observed at ˜pH 8.

[7] = Pharmacokinetics and lung-tissue distribution after oral gavage or intratracheal aerosol; type: in vivo, Sprague-Dawley rats; settings: for half-life / Cmax / AUC(0-t): Sprague-Dawley, rat, inhaled or intranasal; for AUC(0-t): read-out: Plasma AUC0-6 hrs; for Lung Cmax: immediate post-dose calculated from direct-lung delivered dose
[8] = Intravenous push of pirfenidone, plasma and lung levels; type: in vivo; settings: mouse
[9] = 43.7 mg/mL pirfenidone, 8% EtOH, 16% PG, 0 mM sodium saccharin, 76% phosphate buffer (5 mM), pH 7.0
[10] = 43.7 mg/mL pirfenidone, 8% EtOH, 16% PG, 0.3 mM sodium saccharin, 76% phosphate buffer (5 mM), pH 7.0
[11] = 27.2 mg/mL pirfenidone, 4% EtOH, 8% PG, 88% phosphate buffer (5 mM), pH 6.6
[12] = 34.7 mg/mL pirfenidone, 6% EtOH, 12% PG, 82% phosphate buffer (5 mM), pH 7.0
[13] = oral 801 mg fasted-state, lung tissue, from plasma T1/2, Rubino et al., 2009
[14] = oral 801 mg fasted-state, plasma, Rubino et al., 2009
[15] = oral 801 mg fed-state, lung tissue, from plasma T1/2, Rubino et al., 2009
[16] = oral 801 mg fed-state, plasma, Rubino et al., 2009
[17] = oral 801 mg fasted-state, plasma

## Cc1ccc(=O)n(-c2ccccc2)c1 [pirfenidone, 5-methyl-1-phenyl-2-(1H)-pyridone]
[1]; [9]
  Osmolality: 3672 mOsmo/Kg
  Cough Response?: No
  Throat Irritation?: No
[1]; [10]
  Osmolality: 3672 mOsmo/Kg
  Cough Response?: No
  Throat Irritation?: No
[1]; calculated, 27.2 mg/mL pirfenidone, 4% EtOH, 8% PG, 88% phosphate buffer (5 mM), pH 6.6
  Osmolality: ~1830* mOsmo/Kg
[1]; calculated, 34.7 mg/mL pirfenidone, 6% EtOH, 12% PG, 82% phosphate buffer (5 mM), pH 7.0
  Osmolality: ~2750* mOsmo/Kg
[1]; [11]
  Cough Response?: No
  Throat Irritation?: No
[1]; [12]
  Cough Response?: No
  Throat Irritation?: No
[2]; aerosol 110 mg RDD, lung tissue, from plasma T1/2, Rubino et al., 2009 fasted-state
  T1/2 beta: 2.5 h
[2]; aerosol 110 mg RDD, plasma, Rubino et al., 2009 fasted-state
  T1/2 beta: 2.5 h
[2]; aerosol 154 mg RDD, lung tissue, from plasma T1/2, Rubino et al., 2009 fasted-state
  T1/2 beta: 2.5 h
[2]; aerosol 154 mg RDD, plasma, Rubino et al., 2009 fasted-state
  T1/2 beta: 2.5 h
[2]; aerosol 185 mg RDD, lung tissue, from plasma T1/2, Rubino et al., 2009 fasted-state
  T1/2 beta: 2.5 h
[2]; aerosol 185 mg RDD, plasma, Rubino et al., 2009 fasted-state
  T1/2 beta: 2.5 h
[2]; oral 801 mg fasted-state
  AUC over 0-18 hours: 67700 ng·h/mL
  Cmax: 14.2 microgram/mL
[2]; oral 801 mg fed-state
  AUC over 0-18 hours: 58900 ng·h/mL
  Cmax: 7.9 microgram/mL
[2]; [13]
  T1/2 beta: 2.5 h
[2]; [14]
  T1/2 beta: 2.5 h
[2]; [15]
  T1/2 beta: 2.4 h
[2]; [16]
  T1/2 beta: 2.4 h
CYP2C9
  contribution to pirfenidone metabolism: less than 13%
[3]; overnight at 4° C., 23.0 mg/mL (85% saturation), 4% EtOH, 8% PG, 88% phosphate buffer (5 mM), pH 6.6
  Recrystallization upon storage: No
[3]; overnight at 4° C., 29.5 mg/mL, 6% EtOH, 12% PG, 82% phosphate buffer (5 mM), pH 7.0
  Recrystallization upon storage: No
[3]; overnight at 4° C., […], 8% EtOH, 16% PG, 76% phosphate buffer (5 mM), pH 7.0
  Recrystallization upon storage: No
[3]; overnight at 15° C., 23.0 mg/mL (85% saturation), 4% EtOH, 8% PG, 88% phosphate buffer (5 mM), pH 6.6
  Recrystallization upon storage: No
[3]; overnight at 15° C., 29.5 mg/mL, 6% EtOH, 12% PG, 82% phosphate buffer (5 mM), pH 7.0
  Recrystallization upon storage: No
[3]; overnight at 15° C., […], 8% EtOH, 16% PG, 76% phosphate buffer (5 mM), pH 7.0
  Recrystallization upon storage: No
[3]; overnight at 25° C., 23.0 mg/mL (85% saturation), 4% EtOH, 8% PG, 88% phosphate buffer (5 mM), pH 6.6
  Recrystallization upon storage: No
[3]; overnight at 25° C., 27.2 mg/mL (saturation solubility), 4% EtOH, 8% PG, 88% phosphate buffer (5 mM), pH 6.6
  Recrystallization upon storage: Yes
[3]; overnight at 25° C., 29.5 mg/mL, 6% EtOH, 12% PG, 82% phosphate buffer (5 mM), pH 7.0
  Recrystallization upon storage: No
[3]; overnight at 25° C., 34.7 mg/mL, 6% EtOH, 12% PG, 82% phosphate buffer (5 mM), pH 7.0
  Recrystallization upon storage: Yes
[3]; overnight at 25° C., 43.7 mg/mL, 8% EtOH, 16% PG, 76% phosphate buffer (5 mM), pH 7.0
  Recrystallization upon storage: Yes
[3]; overnight at 25° C., […], 8% EtOH, 16% PG, 76% phosphate buffer (5 mM), pH 7.0
  Recrystallization upon storage: No
[3]; overnight at −20° C., 23.0 mg/mL (85% saturation), 4% EtOH, 8% PG, 88% phosphate buffer (5 mM), pH 6.6, crystals re-dissolved at 25° C. without agitation
  Recrystallization upon storage: Yes^f
[3]; overnight at −20° C., 29.5 mg/mL, 6% EtOH, 12% PG, 82% phosphate buffer (5 mM), pH 7.0, crystals re-dissolved at 25° C. without agitation
  Recrystallization upon storage: Yes^f
[3]; overnight at −20° C., […], 8% EtOH, 16% PG, 76% phosphate buffer (5 mM), pH 7.0, crystals re-dissolved at 25° C. without agitation
  Recrystallization upon storage: Yes^f
2C19
  contribution to pirfenidone metabolism: less than 13%
[4]; aerosol 47 mg RDD, lung tissue, from plasma T1/2, Rubino et al., 2009 fasted-state
  T1/2 beta: 2.5 h
[4]; aerosol 47 mg RDD, plasma, Rubino et al., 2009 fasted-state
  T1/2 beta: 2.5 h
[4]; [17]
  AUC (0-18 hrs): 67700 ng·h/mL
  Cmax: 14.2 microgram/mL
[4]; oral 801 mg fed-state, plasma
  AUC (0-18 hrs): 58900 ng·h/mL
  Cmax: 7.9 microgram/mL
[4]; [13]
  T1/2 beta: 2.5 h
[4]; [14]
  T1/2 beta: 2.5 h
[4]; [15]
  T1/2 beta: 2.4 h
[4]; [16]
  T1/2 beta: 2.4 h
[5]; heart, heart tissue, Group 1
  concentration at 0.167 hr: 4910 ng/g
  concentration at 0.333 hr: 3850 ng/g
  concentration at 0.667 hr: 1800 ng/g
  concentration at 0 h: 20 ng/g
  concentration at 4 min: 7900 ng/g
  concentration at 2.5 h: 90 ng/g
[5]; heart, heart tissue, Group 2
  concentration at 0.167 hr: 4100 ng/g
  concentration at 0.333 hr: 3130 ng/g
  concentration at 0.667 hr: 2190 ng/g
  concentration at 0 h: 190 ng/g
  concentration at 4 min: 5920 ng/g
  concentration at 2.5 h: 120 ng/g
[5]; heart, heart tissue, Group 6
  concentration at 0.167 hr: 4950 ng/g
  concentration at 0.333 hr: 3430 ng/g
  concentration at 0.667 hr: 2220 ng/g
  concentration at 0 h: 80 ng/g
  concentration at 4 min: 6320 ng/g
  concentration at 2.5 h: 120 ng/g
[5]; kidney, kidney tissue, Group 1
  concentration at 0 h: 10 ng/g
  concentration at 4 min: 9880 ng/g
  concentration at 0.167 h: 6620 ng/g
  concentration at 0.333 h: 4870 ng/g
  concentration at 0.667 h: 2860 ng/g
[5]; kidney, kidney tissue, Group 2
  concentration at 0 h: 470 ng/g
  concentration at 4 min: 10800 ng/g
  concentration at 0.167 h: 8300 ng/g
  concentration at 0.333 h: 7440 ng/g
  concentration at 0.667 h: 3310 ng/g
  concentration at 1 h: 1750 ng/g
  concentration at 2.5 h: 180 ng/g
[5]; kidney, kidney tissue, Group 6
  concentration at 0 h: 270 ng/g
  concentration at 4 min: 12900 ng/g
  concentration at 0.167 h: 6650 ng/g
  concentration at 0.333 h: 4870 ng/g
  concentration at 0.667 h: 3530 ng/g
  concentration at 1 h: 1710 ng/g
[5]; about 4 mg/kg intratracheal bolus aerosol, co-solvent formulations, rats
  adverse events: No adverse events were noted
[6]; MgCl2 added, 1:1 and 1:2 mole ratios of magnesium to pirfenidone
  formulation stability on storage: maintained a stable, soluble solution
[6]; aqueous solution, aqueous buffer, across a pH range of about 4.0 to about 8.0
  solubility: ~17 mg/mL
[6]; ~17 mg/mL pirfenidone, NaCl added for tonicity, ambient storage
  formulation stability on storage: precipitation upon ambient storage
[7]; lung, 1 mg/kg, aerosol 1 mg/kg, read-out: Lung T1/2 α
  half-life: < 0.0167 h
[7]; lung, 1 mg/kg, aerosol 1 mg/kg, read-out: Lung T1/2 β
  half-life: 0.75 h
[7]; lung, 5 mg/kg, aerosol 5 mg/kg, read-out: Lung T1/2 α
  half-life: < 0.0167 h
[7]; lung, 5 mg/kg, aerosol 5 mg/kg, read-out: Lung T1/2 β
  half-life: 0.75 h
[7]; plasma, 1 mg/kg, aerosol 1 mg/kg, read-out: Plasma T1/2
  half-life: 0.5 h
[7]; plasma, 5 mg/kg, aerosol 5 mg/kg, read-out: Plasma T1/2
  half-life: 0.5 h
[7]; plasma, aerosol 1 mg/kg
  Cmax: 1100 ng/mL
  AUC(0-t): 900 ng·h/mL
[7]; plasma, aerosol 5 mg/kg
  Cmax: 7000 ng/mL
  AUC(0-t): 4500 ng·h/mL
[7]; aerosol 1 mg/kg
  Lung AUC (for time >1 μg/g): 5.2 mg·h/kg
  Lung TOE, time of exposure over 1 μg/g lung tissue: 5 min
[7]; aerosol 5 mg/kg
  Lung AUC (for time >1 μg/g): 25.4 mg·h/kg
  Lung TOE, time of exposure over 1 μg/g lung tissue: 84 min
[7]; aerosol (bolus intratracheal) 1 mg/kg
  Lung Cmax: 101 µg/g
[7]; aerosol (bolus intratracheal) 5 mg/kg
  Lung Cmax: 508 µg/g
[7]; oral 70 mg/kg
  Lung AUC (for time >1 μg/g): 4.3 mg·h/kg
[8]; 40 mg/kg intravenous dose
  Lung Cmax: 30 mcg/gram wet tissue
[8]; 40 mg/kg intravenous dose, blood assumed 40% of wet lung weight
  pirfenidone in the lung tissue after subtracting blood content: about 8 mcg/g
[8]; intravenous push
  wet lung half-life, longer than the plasma half-life: about 45%
[8]; plasma, 40 mg/kg intravenous dose
  Cmax: ~55000 ng/mL
